Data as given in US9924714B2, “Impregnatable matrix of plant, animal or synthetic origin or mixtures of same, containing a uniformly distributed antimicrobial compound, method for impregnating said matrix with a compound, and use thereof in the production of antimicrobial elements” (COMPAÑIA MINERA SAN GERONIMO, priority 2013, dated 2018).

Experiments:
Format in all cases: cell-based
[1] = test system: Escherichia coli ATCC25922; experiment: Sensidisc and thin cloth growth inhibition test (Example 3); set-up: unit not given here
Procedure: (§1) In this example, the antimicrobial activity of the invention was determined by testing on sensidiscs. On order to do this, they were prepared 5 mm filter paper discs, embedded with various concentrations of compound Cu4SO4(OH)6 (Alkaline Copper Sulfate) of the study dissolved in DMSO (0 μg, 200 μg, 400 μg, 600 μg, 800 μg). In addition, pieces of cloth of about 2×2 cm were prepared and embedded with the new product. Paper discs and fabric were deposited on a background lawn, which was performed as follows:
(§2) From a bacterial culture of 16 hours, with the strain of interest, it was performed a 1/30 dilution of the culture with fresh medium and incubated under stirring at 37° C. until reaching the exponential growth phase (D0600 nm 0.4-0.5). It was taken an aliquot of 100 μL of the culture in exponential phase, and deposited in 4 mL of Mueller-Hinton soft agar at 0.8% (previously melted and stabilized at 50° C.). The mixture was deposited on a Petri dish with 20 mL of Mueller-Hinton agar base. Once the agar was gelled, each of the discs with different amounts of the test compound were deposited on the background lawn, and incubated at 37° C. during 48 hours.
(§3) Experiments were performed in triplicate in independently, using as negative control discs with the solvent DMSO alone and cloth without the product of study. As positive control were used commercial discs used with 30 μg of antibiotic Kanamycin (Km).

[2] = test system: Staphylococcus epidermidis; experiment: as above; set-up: unit not given here
Procedure: as §1, §2, §3

[3] = test system: Acinetobacter baumannii UDP456; experiment: as above; set-up: unit not given here
Procedure: as §1, §2, §3

[4] = test system: Enterobacter aerogenes ATCC13048; experiment: as above; set-up: unit not given here
Procedure: as §1, §2, §3

[5] = test system: Citrobacter freundii ISP1949/99; experiment: as above; set-up: unit not given here
Procedure: as §1, §2, §3

[6] = test system: Enterococcus faecium ISP133/04; experiment: as above; set-up: unit not given here
Procedure: as §1, §2, §3

[7] = test system: Streptococcus pneumonia ATCC14325; experiment: as above
Procedure: as §1, §2, §3

[8] = test system: Klebsiella pneumoniae ATCC4352; experiment: as above
Procedure: as §1, §2, §3

[9] = test system: Staphylococcus aureus ATCC25923; experiment: as above
Procedure: as §1, §2, §3

[10] = test system: Pseudomonas aeruginosa PAOI; experiment: as above
Procedure: as §1, §2, §3

[11] = test system: Enterococcus faecalis ATCC29212; experiment: as above
Procedure: as §1, §2, §3

[12] = test system: Streptococcus pyogenes ATCC2367; experiment: as above
Procedure: as §1, §2, §3

[13] = test system: all bacterial strains tested; experiment: Antibacterial activity of alkaline copper sulfate, summary (Example 3); conditions: summary in words of Table 5
Procedure: as §1, §2
Experiments were performed in triplicate in independently, using as negative control discs with the solvent DMSO alone and cloth without the product of study. […]

O=S(=O)([O-])[O-].[Cu+2].[Cu+2].[Cu+2].[Cu+2].[OH-].[OH-].[OH-].[OH-].[OH-].[OH-] [Alkaline Copper Sulphate, Alkaline Copper Sulfate]
Growth inhibition zone ([1]; 200 μg on 5 mm disc): 13.3 ± 1.4 | Growth inhibition zone ([1]; 400 μg on 5 mm disc): 13.0 ± 0.7 | Growth inhibition zone ([1]; 600 μg on 5 mm disc): 15.0 ± 0.7 | Growth inhibition zone ([1]; 800 μg on 5 mm disc): 13.3 ± 0.7 | Growth inhibition zone ([2]; 200 μg on 5 mm disc): 12.0 ± 0.6 | Growth inhibition zone ([2]; 400 μg on 5 mm disc): 14.3 ± 0.6 | Growth inhibition zone ([2]; 600 μg on 5 mm disc): 13.7 ± 1.5 | Growth inhibition zone ([2]; 800 μg on 5 mm disc): 14.6 ± 0.6 | Growth inhibition zone ([3]; 200 μg on 5 mm disc): 11.7 ± 0.6 | Growth inhibition zone ([3]; 400 μg on 5 mm disc): 15.7 ± 0.6 | Growth inhibition zone ([3]; 600 μg on 5 mm disc): 17.0 ± 1.0 | Growth inhibition zone ([3]; 800 μg on 5 mm disc): 19.7 ± 0.6 | Growth inhibition zone ([4]; 200 μg on 5 mm disc): 7.3 ± 1.5 | Growth inhibition zone ([4]; 400 μg on 5 mm disc): 9.7 ± 1.5 | Growth inhibition zone ([4]; 600 μg on 5 mm disc): 9.7 ± 0.6 | Growth inhibition zone ([4]; 800 μg on 5 mm disc): 9.7 ± 1.5 | Growth inhibition zone ([5]; 200 μg on 5 mm disc): 8.0 ± 1.0 | Growth inhibition zone ([5]; 400 μg on 5 mm disc): 10.7 ± 1.5 | Growth inhibition zone ([5]; 600 μg on 5 mm disc): 11.3 ± 0.6 | Growth inhibition zone ([5]; 800 μg on 5 mm disc): 11.3 ± 1.5 | Growth inhibition zone ([6]; 200 μg on 5 mm disc): 6.0 ± 1.0 | Growth inhibition zone ([6]; 400 μg on 5 mm disc): 6.0 ± 1.0 | Growth inhibition zone ([6]; 600 μg on 5 mm disc): 6.0 ± 1.0 | Growth inhibition zone ([6]; 800 μg on 5 mm disc): 6.0 ± 1.0 | Growth inhibition zone ([7]; 200 μg on 5 mm disc): 5.0 ± 1.0 mm | Growth inhibition zone ([7]; 400 μg on 5 mm disc): 8.0 ± 0.7 mm | Growth inhibition zone ([7]; 600 μg on 5 mm disc): 9.0 ± 1.0 mm | Growth inhibition zone ([7]; 800 μg on 5 mm disc): 11.0 ± 1.2 mm | Growth inhibition zone ([8]; 200 μg on 5 mm disc): 7.3 ± 0.6 mm | Growth inhibition zone ([8]; 400 μg on 5 mm disc): 8.7 ± 0.6 mm | Growth inhibition zone ([8]; 600 μg on 5 mm disc): 9.7 ± 0.6 mm | Growth inhibition zone ([8]; 800 μg on 5 mm disc): 10.0 mm | Growth inhibition zone ([9]; 200 μg on 5 mm disc): 6.0 ± 1.0 mm | Growth inhibition zone ([9]; 400 μg on 5 mm disc): 10.3 ± 0.6 mm | Growth inhibition zone ([9]; 600 μg on 5 mm disc): 11.7 ± 0.6 mm | Growth inhibition zone ([9]; 800 μg on 5 mm disc): 14.0 ± 1.0 mm | Growth inhibition zone ([10]; 200 μg on 5 mm disc): 6.3 ± 1.5 mm | Growth inhibition zone ([10]; 400 μg on 5 mm disc): 6.7 ± 1.2 mm | Growth inhibition zone ([10]; 600 μg on 5 mm disc): 8.3 ± 0.6 mm | Growth inhibition zone ([10]; 800 μg on 5 mm disc): 8.3 ± 1.7 mm | Growth inhibition zone ([11]; 200 μg on 5 mm disc): 6.0 ± 1.0 mm | Growth inhibition zone ([11]; 400 μg on 5 mm disc): 6.0 ± 1.0 mm | Growth inhibition zone ([11]; 600 μg on 5 mm disc): 6.0 ± 1.0 mm | Growth inhibition zone ([11]; 800 μg on 5 mm disc): 6.0 ± 1.0 mm | Growth inhibition zone ([12]; 200 μg on 5 mm disc): 5.0 ± 1.0 mm | Growth inhibition zone ([12]; 400 μg on 5 mm disc): 6.0 ± 1.0 mm | Growth inhibition zone ([12]; 600 μg on 5 mm disc): 7.0 ± 1.2 mm | Growth inhibition zone ([12]; 800 μg on 5 mm disc): 8.0 ± 1.4 mm | antibacterial activity ([13]; listed as Alkaline Copper Sulfate (OH)6): antibacterial activity on all bacterial strains tested | antibacterial activity ([13]; listed as product of invention): spectrum of antibacterial activity greater than the hydroxyphosphate copper compounds (II) and copper oxychloride (II)
